Common to all, as to assay type: binding
In assay [1] the target is T1, Recombinant human integrin ανβ1 (Homo sapiens, UniProt P05556+P06756).
T1 construct: purchased R&D Systems 6579-AV
Put plainly: Solid Phase Receptor Assay (SPRA) for ανβ1 function. Conditions: plate-bound human fibronectin; read-out: αvβ1 SPRA IC50. As for the experimental part: B. Solid Phase Receptor Assay (SPRA) for ανβ1 Function
Wells were washed 3 times with 150 μL TBS+ and then 150 μL of blocking buffer (TBS+ with 1% bovine serum albumin, Sigma A7906) was added. The plate was incubated for 1 hr at 37° C. and then washed 3× with TBS+ buffer. […] Compounds were diluted to 20 μM and 1 μL was added to each well of the plate according to a standard template with each sample repeated in triplicate. After incubation for two hours at room temperature, the plate was washed 3 with 150 μL of TBS+ buffer. To each well, 50 μL of biotinylated anti-αν antibody (R&D Systems, BAF1219) at 1 μg/mL in TBS+/0.1% BSA were added and the plate covered and incubated for 1 hr at room temperature. After washing the plate 3× with 150 μL of TBS+ buffer, 50 μL of streptavidin-conjugated horseradish peroxidase (R&D Systems, DY998) diluted in TBS+ blocking buffer were added to the wells and the plate incubated for 20 min at room temperature. The plate was washed 3× with TBS+ buffer followed by 50 μL of TMB substrate (Sigma, T4444) added to each well in the dark and the plate incubated for 25 min at room temperature. 25 μL of 1.0 M phosphoric acid was added as a stop solution and the plates were read at 450 nm using a Spectramax plate reader.

Assay [2] addresses T2, Recombinant human integrin ανβ5 (Homo sapiens, UniProt P06756+P18084).
T2 construct: purchased R&D Systems 2528-AV
Put plainly: Solid Phase Receptor Assay (SPRA) for ανβ5 function. Conditions: plate-bound human vitronectin; read-out: αvβ5 SPRA IC50. As for the experimental part: D. Solid Phase Receptor Assay (SPRA) for ανβ5 Function
Wells were washed 3 times with 150 μL TBS+ and then 150 μL of blocking buffer (TBS+ with 1% bovine serum albumin, Sigma A7906) was added. The plate was incubated for 1 hr at 37° C. and then washed 3× with TBS+ buffer. […] Compounds were diluted to 20 μM and then 1 μL was added to each well of the plate according to a standard template with each sample repeated in triplicate. After incubation for two hours at room temperature, the plate was washed 3× with 150 μL of TBS+ buffer. To each well, 50 μl of biotinylated anti-αν antibody (R&D Systems, BAF1219) at 0.5 μg/mL in TBS+/0.1% BSA at 0.5 μg/mL were added and the plate covered and incubated for 1 hr at room temperature. After washing the plate 3 with 150 μL of TBS+ buffer, 50 μL of streptavidin-conjugated horseradish peroxidase (R&D Systems, DY998) diluted in TBS+ blocking buffer were added to the wells and the plate incubated for 20 min at room temperature. The plate was washed 3× with TBS+ buffer followed by 50 μL of TMB substrate (Sigma T4444) added to each well in the dark and the plate incubated for 5 min at room temperature. 25 μL of 1.0 M phosphoric acid was added as a stop solution and the plates were read at 450 nm using a Spectramax plate reader.

Assay [3] addresses T3, Recombinant human integrin ανβ3 (Homo sapiens, UniProt P05106+P06756).
T3 construct: purchased R&D Systems 3050-AV
Put plainly: Solid Phase Receptor Assay (SPRA) for ανβ3 function. Conditions: plate-bound human vitronectin; read-out: αvβ3 SPRA IC50. As for the experimental part:
C. Solid Phase Receptor Assay (SPRA) for ανβ3 Function
Wells were washed 3 times with 150 μL TBS+ and then 150 μL of blocking buffer (TBS+ with 1% bovine serum albumin, Sigma A7906) was added. The plate was incubated for 1 hr at 37° C. and then washed 3× with TBS+ buffer. […] Compounds were diluted to 20 μM and then 1 μL was added to each well of the plate according to a standard template with each sample repeated in triplicate. After incubation for two hours at room temperature, the plate was washed 3× with 150 μL of TBS+ buffer. To each well, 50 μL of biotinylated anti-αν antibody (R&D Systems, BAF1219) at 0.5 μg/mL in TBS+/0.1% BSA were added and the plate covered and incubated for 1 hr at room temperature. After washing the plate 3× with 150 μL of TBS+ buffer, 50 μL of streptavidin-conjugated horseradish peroxidase (R&D Systems, DY998) diluted in TBS+ blocking buffer were added to the wells and the plate incubated for 20 min at room temperature. The plate was washed 3× with TBS+ buffer followed by 50 μL of TMB substrate (Sigma, T4444) added to each well in the dark and the plate was incubated for 25 min at room temperature. 25 μL of 1.0 M phosphoric acid was added as a stop solution and the plates were read at 450 nm using a Spectramax plate reader.

Assay [4] concerns the target T4, Recombinant human integrin ανβ8 (Homo sapiens, UniProt P06756+P26012).
T4 construct: purchased R&D Systems 4135-AV
Put plainly: Solid Phase Receptor Assay (SPRA) for ανβ8 function. Conditions: plate-bound human LAP; read-out: αvβ8 SPRA IC50. As for the experimental part: F. Solid Phase Receptor Assay (SPRA) for ανβ8 Function
Wells were washed 3 times with 150 μL TBS+ and then 150 μL of blocking buffer (TBS+ with 1% bovine serum albumin, Sigma A7906) was added. The plate was incubated for 1 hr at 37° C. and then washed 3× with TBS+. […] Compounds were diluted to 20 μM and 1 μL was added to each well of the plate according to a standard template with each sample repeated in triplicate. After incubation for two hours at room temperature, the plate was washed 3× with 150 μL of TBS+. To each well, 50 μL of biotinylated anti-αν antibody (R&D Systems, BAF1219) at 1 μg/mL in TBS+/0.1% BSA were added and the plate was covered and incubated for 1 hr at room temperature. After washing the plate 3× with 150 μL. of TBS+ buffer, 50 μL of streptavidin-conjugated horseradish peroxidase (R&D Systems, DY998) diluted in TBS+ blocking buffer were added to the wells and the plate incubated for 20 min at room temperature. The plate was washed 3× with TBS+ followed by 50 μL of TMB substrate (Sigma T4444) added to each well in the dark and the plate incubated for 10 min at room temperature. 25 μL of 1.0 M phosphoric acid was added as a stop solution and the plates were read at 450 nm using a Spectramax plate reader.

The target of assay [5] is T5, Recombinant human integrin ανβ6 (Homo sapiens, UniProt P06756+P18564).
T5 construct: purchased R&D Systems 3817-AV
T5 sequence (P06756 31-992 limits assumed): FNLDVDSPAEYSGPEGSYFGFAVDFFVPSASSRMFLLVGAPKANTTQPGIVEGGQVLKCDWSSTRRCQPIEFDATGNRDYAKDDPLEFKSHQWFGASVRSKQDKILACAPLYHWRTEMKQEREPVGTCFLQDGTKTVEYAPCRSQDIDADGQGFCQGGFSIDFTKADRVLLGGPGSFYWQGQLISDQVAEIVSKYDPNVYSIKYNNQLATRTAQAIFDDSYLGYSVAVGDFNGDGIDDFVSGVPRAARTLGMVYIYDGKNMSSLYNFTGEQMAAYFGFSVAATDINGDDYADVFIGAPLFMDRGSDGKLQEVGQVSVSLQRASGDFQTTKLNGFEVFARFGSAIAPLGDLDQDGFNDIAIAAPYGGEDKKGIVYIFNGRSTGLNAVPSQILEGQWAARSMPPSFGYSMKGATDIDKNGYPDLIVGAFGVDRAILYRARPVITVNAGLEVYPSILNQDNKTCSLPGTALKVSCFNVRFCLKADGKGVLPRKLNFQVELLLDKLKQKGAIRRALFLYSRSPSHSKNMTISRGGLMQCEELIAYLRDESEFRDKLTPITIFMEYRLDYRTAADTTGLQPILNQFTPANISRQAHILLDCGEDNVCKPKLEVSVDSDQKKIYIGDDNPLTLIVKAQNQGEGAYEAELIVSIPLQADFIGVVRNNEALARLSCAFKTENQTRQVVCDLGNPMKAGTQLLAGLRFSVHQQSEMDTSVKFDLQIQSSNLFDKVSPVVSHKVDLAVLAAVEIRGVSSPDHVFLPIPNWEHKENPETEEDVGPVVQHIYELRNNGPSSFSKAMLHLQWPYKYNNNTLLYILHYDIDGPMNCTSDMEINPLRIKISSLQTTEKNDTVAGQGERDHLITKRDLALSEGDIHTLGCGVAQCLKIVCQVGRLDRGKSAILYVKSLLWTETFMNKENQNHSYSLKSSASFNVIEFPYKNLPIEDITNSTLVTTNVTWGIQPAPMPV
T5 sequence (P18564 22-707 limits assumed): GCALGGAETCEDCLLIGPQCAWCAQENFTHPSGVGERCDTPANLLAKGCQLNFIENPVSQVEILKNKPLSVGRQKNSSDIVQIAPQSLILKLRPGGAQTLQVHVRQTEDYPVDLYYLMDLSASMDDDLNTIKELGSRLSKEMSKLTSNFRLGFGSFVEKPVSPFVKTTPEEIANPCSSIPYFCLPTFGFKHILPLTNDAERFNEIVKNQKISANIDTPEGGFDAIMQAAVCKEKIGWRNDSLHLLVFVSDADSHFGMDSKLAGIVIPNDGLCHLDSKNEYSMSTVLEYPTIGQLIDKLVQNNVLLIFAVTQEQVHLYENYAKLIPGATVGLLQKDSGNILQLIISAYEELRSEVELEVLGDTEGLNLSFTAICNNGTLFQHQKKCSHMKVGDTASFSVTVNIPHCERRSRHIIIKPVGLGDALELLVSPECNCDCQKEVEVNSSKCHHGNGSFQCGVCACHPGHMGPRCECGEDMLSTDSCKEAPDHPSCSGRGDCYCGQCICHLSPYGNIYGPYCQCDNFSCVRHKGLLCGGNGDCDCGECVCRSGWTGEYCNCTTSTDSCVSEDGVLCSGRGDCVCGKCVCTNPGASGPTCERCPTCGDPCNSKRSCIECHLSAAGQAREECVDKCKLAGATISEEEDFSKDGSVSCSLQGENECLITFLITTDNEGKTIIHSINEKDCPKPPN
Put plainly: Solid Phase Receptor Assay (SPRA) for ανβ6 function. Conditions: plate-bound human LAP; read-out: αvβ6 SPRA IC50. As for the experimental part: E. Solid Phase Receptor Assay (SPRA) for ανβ6 Function
Wells were washed 3 times with 150 μL TBS+, and then 150 μL of blocking buffer (TBS+ with 1% bovine serum albumin, Sigma A7906) was added. The plate was incubated for 1 hr at 37° C., and then washed 3× with TBS+ buffer. […] Compounds were diluted to 20 μM and then 1 μL was added to each well of the plate according to a standard template with each sample repeated in triplicate. After incubation for two hours at room temperature, the plate was washed 3× with 150 μL of TBS+ buffer. To each well, 50 μL of biotinylated anti-αν antibody (R&D Systems, BAF1219) at 0.5 μg/mL in TBS+/0.1% BSA were added and the plate was covered and incubated for 1 hr at room temperature. After washing the plate 3× with 150 μL of TBS+ buffer, 50 μL of streptavidin-conjugated horseradish peroxidase (R&D Systems, DY998) diluted in TBS+ blocking buffer were added to the wells and the plate incubated for 20 min at room temperature. The plate was washed 3× with TBS+ buffer followed by 50 μL of TMB substrate (Sigma T4444) added to each well in the dark and the plate incubated for 10 min at room temperature. 25 μL of 1.0 M phosphoric acid was added as a stop solution and the plates were read at 450 nm using a Spectramax plate reader.

In assay [6] the target is T6, Recombinant human integrin α5β1 (Homo sapiens, UniProt P05556+P08648).
T6 construct: purchased R&D Systems 3230-A5
T6 sequence (P08648 42-995 limits assumed): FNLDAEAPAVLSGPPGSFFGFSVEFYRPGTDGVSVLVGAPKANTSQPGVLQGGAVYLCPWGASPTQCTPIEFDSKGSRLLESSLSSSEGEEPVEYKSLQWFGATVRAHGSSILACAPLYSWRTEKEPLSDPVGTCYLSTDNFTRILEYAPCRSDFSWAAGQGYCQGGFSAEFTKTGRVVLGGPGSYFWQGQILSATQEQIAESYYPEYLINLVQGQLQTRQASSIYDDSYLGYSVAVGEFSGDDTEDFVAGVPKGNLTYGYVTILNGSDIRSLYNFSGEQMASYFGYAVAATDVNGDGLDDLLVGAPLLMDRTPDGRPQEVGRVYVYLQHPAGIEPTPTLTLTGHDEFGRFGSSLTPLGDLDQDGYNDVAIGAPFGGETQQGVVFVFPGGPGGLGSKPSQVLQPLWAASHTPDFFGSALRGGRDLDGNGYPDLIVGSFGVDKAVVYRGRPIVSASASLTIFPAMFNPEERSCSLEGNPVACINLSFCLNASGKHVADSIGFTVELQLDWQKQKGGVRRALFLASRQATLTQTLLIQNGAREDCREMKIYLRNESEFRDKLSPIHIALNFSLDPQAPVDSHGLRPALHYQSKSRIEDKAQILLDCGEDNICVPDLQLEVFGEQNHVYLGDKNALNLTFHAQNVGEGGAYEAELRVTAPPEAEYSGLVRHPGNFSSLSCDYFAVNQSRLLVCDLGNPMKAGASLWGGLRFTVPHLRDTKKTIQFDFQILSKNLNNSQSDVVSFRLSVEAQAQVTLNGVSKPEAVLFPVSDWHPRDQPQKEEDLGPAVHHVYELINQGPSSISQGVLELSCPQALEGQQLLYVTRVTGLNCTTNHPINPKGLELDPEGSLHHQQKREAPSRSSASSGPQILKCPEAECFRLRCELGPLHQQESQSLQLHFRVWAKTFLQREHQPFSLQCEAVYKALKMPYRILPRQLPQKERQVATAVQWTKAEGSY
T6 sequence (P05556 21-728 limits assumed): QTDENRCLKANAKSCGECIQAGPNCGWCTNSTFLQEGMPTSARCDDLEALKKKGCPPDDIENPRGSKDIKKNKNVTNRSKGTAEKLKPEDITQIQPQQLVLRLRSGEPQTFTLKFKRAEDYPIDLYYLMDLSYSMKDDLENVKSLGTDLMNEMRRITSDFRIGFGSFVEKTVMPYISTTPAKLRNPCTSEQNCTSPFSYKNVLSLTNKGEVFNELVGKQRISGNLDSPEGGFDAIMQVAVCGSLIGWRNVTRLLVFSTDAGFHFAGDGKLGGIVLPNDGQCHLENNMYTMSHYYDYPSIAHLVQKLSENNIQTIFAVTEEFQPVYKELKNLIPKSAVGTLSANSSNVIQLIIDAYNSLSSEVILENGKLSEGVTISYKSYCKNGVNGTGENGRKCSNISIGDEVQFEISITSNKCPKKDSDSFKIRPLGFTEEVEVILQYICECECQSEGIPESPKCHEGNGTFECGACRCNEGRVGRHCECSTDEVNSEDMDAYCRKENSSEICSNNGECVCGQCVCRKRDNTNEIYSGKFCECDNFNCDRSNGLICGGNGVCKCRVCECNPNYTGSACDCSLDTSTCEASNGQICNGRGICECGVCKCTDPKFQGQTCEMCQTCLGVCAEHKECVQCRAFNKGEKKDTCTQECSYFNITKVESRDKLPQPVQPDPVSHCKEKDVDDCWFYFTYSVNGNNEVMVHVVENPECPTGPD
Put plainly: Solid Phase Receptor Assay (SPRA) for α5β1 function. Conditions: plate-bound human fibronectin. As for the experimental part: A. Solid Phase Receptor Assay (SPRA) for α5β1 Function
Wells were washed 3 times with 150 μL TBS+ and then 150 μL of blocking buffer (TBS+ with 1% bovine serum albumin, Sigma A7906) was added. The plate was incubated for 1 hr at 37° C. and then washed 3× with TBS+ buffer. […] Compounds were diluted to 20 μM and then 1 μL was added to each well of the plate according to a standard template with each sample repeated in triplicate. After incubation for two hours at room temperature, the plate was washed 3× with 150 μL of TBS+ buffer. To each well, 50 μL of biotinylated anti-α5 antibody (R&D Systems, BAF1864) at 0.5 μg/mL in TBS+/0.1% BSA were added and the plate covered and incubated for 1 hr at room temperature. After washing the plate 3× with 150 μL of TBS+ buffer, 50 μL of streptavidin-conjugated horseradish peroxidase (R&D Systems, DY998) diluted in TBS+ blocking buffer were added to the wells and the plate incubated for 20 min at room temperature. The plate was washed 3× with TBS+ buffer followed by 50 μL of room temperature TMB substrate (Sigma, T4444) added to each well in the dark and the plate incubated for 25 min at room temperature. 25 μL of 1.0 M phosphoric acid was added as a stop solution and the plates were read at 450 nm using a Spectramax plate reader.

Counter-ions that a name gives are not always drawn.

T4 sequence (P06756 31-992 limits assumed): as the sequence (P06756 31-992 limits assumed) above
T4 sequence (P26012 43-684 limits assumed): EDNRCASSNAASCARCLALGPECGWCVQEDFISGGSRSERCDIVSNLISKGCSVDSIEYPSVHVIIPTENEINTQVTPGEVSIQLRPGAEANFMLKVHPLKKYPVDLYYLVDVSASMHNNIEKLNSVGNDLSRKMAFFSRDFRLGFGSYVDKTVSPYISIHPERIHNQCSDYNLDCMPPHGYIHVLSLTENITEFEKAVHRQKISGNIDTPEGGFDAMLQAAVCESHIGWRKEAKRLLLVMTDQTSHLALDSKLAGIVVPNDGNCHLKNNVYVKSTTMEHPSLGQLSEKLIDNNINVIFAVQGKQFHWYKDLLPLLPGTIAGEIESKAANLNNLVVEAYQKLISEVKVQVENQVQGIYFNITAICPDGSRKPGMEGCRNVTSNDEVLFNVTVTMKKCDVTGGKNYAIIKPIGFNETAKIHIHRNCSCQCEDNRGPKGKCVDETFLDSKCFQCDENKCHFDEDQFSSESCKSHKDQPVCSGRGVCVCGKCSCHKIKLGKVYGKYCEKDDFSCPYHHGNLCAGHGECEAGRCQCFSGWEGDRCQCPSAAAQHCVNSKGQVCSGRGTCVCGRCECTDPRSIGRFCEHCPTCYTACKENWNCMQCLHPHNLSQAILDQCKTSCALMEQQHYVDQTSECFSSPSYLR
T1 sequence (P06756 31-992 limits assumed): as the sequence (P06756 31-992 limits assumed) above
T1 sequence (P05556 21-728 limits assumed): as the sequence (P05556 21-728 limits assumed) above
T2 sequence (P06756 31-992 limits assumed): as the sequence (P06756 31-992 limits assumed) above
T2 sequence (P18084 24-719 limits assumed): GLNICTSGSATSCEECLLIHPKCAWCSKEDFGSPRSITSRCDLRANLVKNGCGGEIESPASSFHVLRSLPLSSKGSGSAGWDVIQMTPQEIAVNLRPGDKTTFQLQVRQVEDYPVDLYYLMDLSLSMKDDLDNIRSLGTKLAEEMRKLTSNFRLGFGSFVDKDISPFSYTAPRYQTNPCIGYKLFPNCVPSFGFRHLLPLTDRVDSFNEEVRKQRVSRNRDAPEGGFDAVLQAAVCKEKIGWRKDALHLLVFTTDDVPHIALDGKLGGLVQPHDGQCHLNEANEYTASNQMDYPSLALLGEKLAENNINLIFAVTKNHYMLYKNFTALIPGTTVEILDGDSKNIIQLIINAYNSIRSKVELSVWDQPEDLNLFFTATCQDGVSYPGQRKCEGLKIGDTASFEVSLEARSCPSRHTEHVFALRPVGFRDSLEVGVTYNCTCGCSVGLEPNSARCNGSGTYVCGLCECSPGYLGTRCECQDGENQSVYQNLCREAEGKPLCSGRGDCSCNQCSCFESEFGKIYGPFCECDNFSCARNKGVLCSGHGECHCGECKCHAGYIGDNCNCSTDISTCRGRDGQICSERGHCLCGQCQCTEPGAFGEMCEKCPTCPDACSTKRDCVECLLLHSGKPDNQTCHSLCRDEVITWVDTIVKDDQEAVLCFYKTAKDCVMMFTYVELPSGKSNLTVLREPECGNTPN

What is called IC50 is the concentration at which inhibition is half-maximal. As for `Cn1nc(CC(CC(=O)O)c2cc(C#N)cc(C(F)(F)F)c2)cc1OCCc1ccc2c(n1)NCCC2` (stereo not drawn) [Example 12, 3-(3-cyano-5-(trifluoromethyl)phenyl)-4-(1-methyl-5-(2-(5,6,7,8-tetrahydro-1,8-naphthyridin-2-yl)ethoxy)-1H-pyrazol-3-yl)butanoic Acid], the IC50 was found to be 4.5 nM in assay [1]; 0.1 nM in assay [2]; 4.3 nM in assay [3]; 14 nM in assay [4]; 27 nM in assay [5].

Consider `CC(C)Oc1ccc(C(C)(C)C)cc1C(CC(=O)O)Cc1cc(OCCc2ccc3c(n2)NCCC3)n(C)n1` (stereo not drawn) [Example 35, 3-(5-tert-butyl-2-isopropoxy-phenyl)-4-[1-methyl-5-[2-(5,6,7,8-tetrahydro-1,8-naphthyridin-2-yl)ethoxy]pyrazol-3-yl]butanoic Acid Trifluoroacetate], for which the IC50 in assay [1] is 7.6 nM; in assay [4] it was 120 nM; in assay [6], 75 nM; in assay [5], 1100 nM.

The record behind these values is patent publication US11306084B2, “Integrin antagonists” (Saint Louis University, priority 2016, dated 2022).
